Source: patent publication US20060111368A1, “Phosphodiesterase inhibitor” (Kyowa Hakko Kogyo Co., Ltd., priority 2002, published 2006)
Read-outs that look alike come from different tables or passages of the source.

What was measured:
PDE10A = target: T1, PDE10A (Homo sapiens, UniProt Q9Y233); test: Activity of inhibiting PDE10A activity ([3H]cAMP decomposition inhibiting test); type: biochemical; conditions: for inhibition at 1 µM: read-out: [3H] cAMP decomposition inhibition rate (%); for IC50: read-out: IC50 (concentration at which to inhibit [3H]cAMP decomposition by 50%)
T1 construct: made in house; host or cells: Sf9 insect cells (baculovirus, pVL1393)
Procedure: Activity of Inhibiting PDE10A Activity (^3H]cAMP Decomposition Inhibiting Test)
PCR was performed using DNAs having base sequences described in SEQ ID NO. 1 and SEQ ID NO. 2 as primers and human kidney cDNA as a template to prepare a plasmid containing amplified fragments. The plasmid was cleaved with restriction endonucleases Pst I and Xba I to obtain a Pst I-Xba I fragment of 0.7 kb.
Meanwhile, Est clone (Cosmo Bio, Tokyo) of GenBank, ACCESSION WO 4835 was cleaved with restriction endonucleases Kpn I and Pst I to obtain a Kpn I-Pst I fragment of 1.5 kb.
The resulting Pst I-Xba I fragment of 0.7 kb and Kpn I-Pst I fragment of 1.5 kb were subcloned in a Kpn I-Xba I site of pBluescript II KS(−) (STRATAGENE, La Jolla, Calif., USA),to construct a plasmid having a cDNA fragment completely including a catalyst region of PDE10A. Subsequently, the plasmid was cleaved with restriction endonucleases Kpn I and Not I to obtain a Kpn I-Not I fragment of 2.2 kb.
The resulting Kpn I-Not I fragment of 2.2 kb and a linker having a BamH I-Kpn I cleavage surface prepared by synthetic DNA having base sequences described in SEQ ID NOS. 3 and 4 were subcloned in a BamH I-Not I site of pVL1393 (PharMingen, San Diego, Calif., USA) to obtain a plasmid for preparation of Baculovirus. The plasmid contains a DNA encoding a peptide in which methionine, FLAG tag and a peptide having a 64th to 779th amino acid sequence of PDE10A [GenBank, ACCESSION NP 006652: Gene, vol. 234, p. 109 (1999), J. Biol. Chem., vol. 274, p. 18438 (1999)] are bound in the order.
The above gene recombinational manipulation was performed according to the method described in Molecular Cloning, 2nd edition, Cold Spring Harbor Laboratory Press, New York (1989).
The expression of PDE10A was conducted according to the Baculovirus expression vector system manual (PharMingen) using insect cells. As insect cells, Sf9 cells (Asahi Technoglass, Tokyo) were used. Sf9 cells were infected with a supernatant (co-transfection sup) containing PDE10A expression virus prepared according to the manual, and cultured at 27° C. for 4 days. The cells were recovered, washed with a phosphate-buffered saline (PBS), and then suspended in an extraction solution [20 mmol/L Tris-acetate (pH 7.5), 2 mmol/L MgCl2, 1 mmol/L dithiothreitol, 1 mmol/L ethylenediaminetetraacetic acid (EDTA), 0.25 mol/L sucrose, 250 unit/mL aprotinin, 40 μg/mL phenylmethylsulfonyl fluoride, and 1 μg/mL pepstatin A]. The cells were disrupted in ice with the maximum output under conditions of 5 seconds and five times using an ultrasonic disruption machine (TOMY model UR-200R, TOMY, Tokyo). A soluble fraction was obtained by centrifugation under 10,000 rpm of the fraction at 4° C. for 30 minutes, and the resulting soluble fraction was used for measuring the PDE activity.
The PDE activity was measured according to the method described in Methods Enzymol., vol. 159, p. 457 (1988).
Using [^3H]cAMP as a substrate, an enzyme reaction was conducted in a reaction solution containing 300 μL of 50 mmol/L N,N-bis (2-hydroxyethyl)-2-aminoethanesulfonic acid (pH 7.2), 1 mmol/L MgCl2 and 0.1 mmol/L ethylene glycol-bis (β-aminoethyl ether)-N,N,N′,N′-tetraacetic acid: EGTA). The concentration of the substrate was 0.2 μmol/L. To 95 μL of an enzyme dilute solution were added 5 μL of a test compound (DMSO solution) and 200 μL of a substrate solution. The mixture was incubated at 30° C. for 20 minutes, and then HCl was added to stop the reaction. The reaction product (5′-AMP) was converted to adenosine using 5′-nucleotidase, and separated the unreacted product from the reactant by DEAE-Sephadex A-25 column (Amersham Pharmacia Biotech, Uppsala, Sweden). The elute was moved to scintillation vials, 6 mL of Ultima Gold (Packard Instrument, Meriden, Conn., USA) was added, and the radioactivity was measured for 2 minutes using a liquid scintillation counter (Beckman LS6500, Beckman, Tokyo),. […]

[1] = Test compound concentration 1 μmol/L, substrate [3H]cAMP 0.2 μmol/L

T1 sequence (Q9Y233 340-1055): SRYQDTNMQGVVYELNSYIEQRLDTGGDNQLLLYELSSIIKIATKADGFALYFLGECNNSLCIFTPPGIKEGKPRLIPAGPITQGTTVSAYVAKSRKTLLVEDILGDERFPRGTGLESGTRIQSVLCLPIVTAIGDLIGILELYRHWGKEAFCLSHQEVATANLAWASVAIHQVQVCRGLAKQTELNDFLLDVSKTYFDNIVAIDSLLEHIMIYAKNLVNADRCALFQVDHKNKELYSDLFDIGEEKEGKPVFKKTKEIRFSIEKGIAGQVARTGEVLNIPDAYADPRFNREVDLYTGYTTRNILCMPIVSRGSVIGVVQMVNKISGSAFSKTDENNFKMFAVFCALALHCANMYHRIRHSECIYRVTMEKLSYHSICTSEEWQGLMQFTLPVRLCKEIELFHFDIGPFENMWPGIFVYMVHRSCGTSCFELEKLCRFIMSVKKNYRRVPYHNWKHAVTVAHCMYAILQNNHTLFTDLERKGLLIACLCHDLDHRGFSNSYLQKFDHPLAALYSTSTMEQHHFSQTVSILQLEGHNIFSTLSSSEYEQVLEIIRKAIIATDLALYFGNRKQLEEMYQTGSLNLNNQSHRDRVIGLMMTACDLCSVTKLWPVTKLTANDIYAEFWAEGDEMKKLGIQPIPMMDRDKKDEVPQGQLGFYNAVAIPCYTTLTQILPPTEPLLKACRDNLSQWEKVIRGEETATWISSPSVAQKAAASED

SMILES	melting point [°C]	inhibition at 1 µM (PDE10A; [1]) [%]	IC50 (PDE10A; substrate [3H]cAMP 0.2 μmol/L) [nM]	inhibition at 1 µM (PDE10A) [%]
Cc1c(-c2ccc(-c3ccccc3-c3ccccc3)cc2)nc2ccc(F)cc2c1C [Compound 18, 3,4-Dimethyl-6-fluoro-2-([1,1′:2′,1″-terphenyl]-4-yl)quinoline]	194 to 195	97	4.8	–
Cc1c(-c2ccc(-c3ccccc3CO)cc2)nc2ccc(F)cc2c1C(=O)O [K, 6-Fluoro-2-(2′-hydroxymethylbiphenyl-4-yl)-3-methylquinoline-4-carboxylic acid]	258 to 260	90	–	–
CCOc1ccccc1-c1ccc(-c2nc3ccc(F)cc3c(CO)c2C)cc1 [Compound 3, 2-(21-Ethoxybiphenyl-4-yl)-6-fluoro-4-hydroxymethyl-3-methylquinoline]	140 to 143	97	76	–
Cc1c(-c2ccc(-c3ccccc3CN3CCN(c4ccccc4)CC3)cc2)nc2ccc(F)cc2c1C(=O)O [L, 6-Fluoro-3-methyl-2-[21-(4-phenylpiperazin-1-yl)methylbiphenyl-4-yl]quinoline-4-carboxylic acid]	189 to 190	99	21	–
Cc1c(-c2ccc(-c3ccccc3-c3ccccc3)cc2)nc2ccc(F)cc2c1C(=O)O [Compound C, 6-Fluoro-3-methyl-2-([1,1′:2′,1″-terphenyl)-4-yl)quinoline-4-carboxylic acid]	> 300	–	0.9	99
Cc1c(-c2ccc(-c3ccccc3CNc3ccccc3)cc2)nc2ccc(F)cc2c1C(=O)O [Compound N, 6-Fluoro-3-methyl-2-[(2′-phenylamino)methylbiphenyl-4-yl]quinoline-4-carboxylic acid]	222 to 224	99	13	–
Cc1c(-c2ccc(-c3ccccc3-c3ccccc3)cc2)nc2ccc(F)cc2c1C#N [Compound 17, 6-Fluoro-3-methyl-2-([1,1′;2′,1″-terphenyl]-4-yl)quinoline-4-carbonitrile]	153 to 155	70	373	–
